Experimental data as given in patent US20240400579A1, “SPIROCYCLIC MODULATORS OF CHOLESTEROL BIOSYNTHESIS AND THEIR USE FOR PROMOTING REMYELINATION” (GENENTECH, INC., priority 2021, published 2024).

Columns and labels:
[1] = test system: zymostenol accumulation in EpiSC-derived OPCs (EBP); assay: GC/MS-based sterol profiling, zymostenol accumulation; type: cell-based, mouse; details: Mus musculus, 24 h, 8 doses from 0.15 nM to 333 nM, read-out: mZymo GCMS EC50
Summary of the method: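 EpiSC-derived mouse OPCs plated at 100,000 cells/well in N2B27 without growth factors and treated 24 h. Sterols extracted, silylated with BSTFA and measured by GC/MS (EI, full scan), quantified against cholesterol-d7. Zymostenol normalized to levels after 24 h with 100 nM positive control reference.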

[2] = biological target: human emopamil binding protein and human 7-dehydrocholesterol reductase co-expressing cell membrane (Homo sapiens (Human), UniProt Q15125); assay: hEBP-DHCR7 radioligand filtration binding assay with [3H]-Compound 118A*; details: radioligand [3H]-Compound 118A*; HEK293 membrane co-expressing hEBP and DHCR7
Sequence of human emopamil binding protein and human 7-dehydrocholesterol reductase co-expressing cell membrane (Q15125 whole entry): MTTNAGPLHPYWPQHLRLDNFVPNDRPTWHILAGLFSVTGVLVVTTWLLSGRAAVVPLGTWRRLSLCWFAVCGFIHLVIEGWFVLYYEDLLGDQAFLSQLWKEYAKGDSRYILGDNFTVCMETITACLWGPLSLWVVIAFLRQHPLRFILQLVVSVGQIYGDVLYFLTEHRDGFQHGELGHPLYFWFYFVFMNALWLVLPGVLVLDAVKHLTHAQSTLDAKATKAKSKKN
Summary of the method: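 HEK293 membranes transiently co-expressing hEBP and hDHCR7 (10 μg/well) were incubated with [3H]-Compound 118A* (added at 25 nM) and compounds (8 doses, final 0.06–5000 nM, n=2) for 3 h at 22 °C. Bound radioactivity was read after PEI-treated GF/B filtration. IC50 came from a Hill fit of % inhibition and was converted to Ki.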

EpiSC-derived OPCs = assay: In vitro phenotypic screening of OPCs, MBP high-content imaging; type: cell-based, mouse; details: Mus musculus, 72 h, percentage of MBP+ oligodendrocytes; 3 days; 0.5 nM to 1000 nM; read-out: mOPC EC50
Summary of the method: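 Mouse EpiSC-derived OPCs seeded without growth factors and exposed 3 days at 37° C. to 8-point doses, 1000 nM to 0.5 nM final. Fixed cells stained for MBP and DAPI; high-content imaging gave percentage MBP+ oligodendrocytes, with EC50 from Hill-equation fit.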

Compound | EC50 [1] [nM] | Ki [2] [nM] | EC50 (EpiSC-derived OPCs) [nM]
O=S1(=O)CC2(CCN(CCOc3ccc([C@H]4CC[C@H](C(F)(F)F)CC4)nc3)CC2)C1 [247A*, 7-(2-((6-((trans)-4-(Trifluoromethyl)cyclohexyl)pyridin-3-yl)oxy)ethyl)-2-thia-7-azaspiro[3.5]nonane 2,2-dioxide] | 3.16 | 5.72 | 22.8
CCC(C)(C)c1ccc(CC(C)CN2CCC3(CCS(=O)(=O)C3)C2)cc1 (stereo not drawn) [Compound 106] | 8.5 | 8.38 | 47
CC(C)(CN1CCC2(C1)CS(=O)(=O)C2)Oc1ccc(C(F)(F)F)cc1 [Compound 120, 6-(2-Methyl-2-(4-(trifluoromethyl)phenoxy)propyl)-2-thia-6-azaspiro[3.4]octane 2,2-dioxide] | 4 | 17.7 | 6.4
O=S1(=O)CC2(CCN(CCCc3ccc(OC(F)(F)F)cc3)CC2)C1 [Compound 213, 7-(3-(4-(Trifluoromethoxy)phenyl)propyl)-2-thia-7-azaspiro[3.5]nonane 2,2-dioxide] | 5 | 12 | 4.7
O=S1(=O)CCC2(CC1)CN(CCOc1ccc(F)c(F)c1)C2 [Compound 214, 2-(2-(3,4-Difluorophenoxy)ethyl)-7-thia-2-azaspiro[3.5]nonane 7,7-dioxide] | 15 | 40.8 | 50.4
O=S1(=O)CC2(CCN(CCOc3ccc(OC(F)(F)F)cc3)CC2)C1 [Compound 218, 7-(2-(4-(Trifluoromethoxy)phenoxy)ethyl)-2-thia-7-azaspiro[3.5]nonane 2,2-dioxide] | 0.93 | 6.54 | 2.5
O=S1(=O)CCC2(CC1)CN(CCOc1ccc(F)c(Cl)c1)C2 [Compound 219, 2-(2-(3-Chloro-4-fluorophenoxy)ethyl)-7-thia-2-azaspiro[3.5]nonane 7,7-dioxide] | 6.9 | 22.1 | 22.2
O=S1(=O)CC2(CCN(CC3(Oc4ccc(C(F)(F)F)cc4)CCC3)CC2)C1 [Compound 222, 7-((1-(4-(Trifluoromethyl)phenoxy)cyclobutyl)methyl)-2-thia-7-azaspiro[3.5]nonane 2,2-dioxide] | 3.7 | 3.7 | 16
O=S1(=O)CCC2(CC1)CN(CCCc1ccc(C(F)(F)F)nc1)C2 [Compound 223, 2-(3-(6-(Trifluoromethyl)pyridin-3-yl)propyl)-7-thia-2-azaspiro[3.5]nonane 7,7-dioxide] | 120 | 555 | 355
O=S1(=O)CC2(CCN(CCCc3ccc(F)c(F)c3)CC2)C1 [Compound 225, 7-(3-(3,4-Difluorophenyl)propyl)-2-thia-7-azaspiro[3.5]nonane 2,2-dioxide] | 12.2 | 24.3 | 23.5
O=S1(=O)CC2(CCN(CCOc3ccc(C(F)(F)F)cc3)CC2)C1 [Compound 226, 7-(2-(4-(Trifluoromethyl)phenoxy)ethyl)-2-thia-7-azaspiro[3.5]nonane 2,2-dioxide] | 0.88 | 9.29 | 2.2
O=S1(=O)CC2(CCN(CCOc3ccc(C(F)(F)F)c(F)c3)CC2)C1 [Compound 228, 7-(2-(3-Fluoro-4-(trifluoromethyl)phenoxy)ethyl)-2-thia-7-azaspiro[3.5]nonane 2,2-dioxide] | 0.94 | 7.95 | 2.8
O=S1(=O)CC2(CCN(CCOc3ccc(F)cn3)CC2)C1 [Compound 229, 7-(2-((5-Fluoropyridin-2-yl)oxy)ethyl)-2-thia-7-azaspiro[3.5]nonane 2,2-dioxide] | 34 | 110 | 135
CC(C)(CN1CCC2(CC1)CS(=O)(=O)C2)Oc1ccc(Cl)c(F)c1 [Compound 231, 7-(2-(4-Chloro-3-fluorophenoxy)-2-methylpropyl)-2-thia-7-azaspiro[3.5]nonane 2,2-dioxide] | 0.32 | 7.31 | 0.9
CC(C)(CN1CCC2(CC1)CS(=O)(=O)C2)Oc1cccc(C(F)(F)F)c1 [Compound 233, 7-(2-Methyl-2-(3-(trifluoromethyl)phenoxy)propyl)-2-thia-7-azaspiro[3.5]nonane 2,2-dioxide] | 1.5 | 13.2 | 5.7
O=S1(=O)CC2(CCN(CCOc3ccnc(C(F)(F)F)c3)CC2)C1 [Compound 236, 7-(2-((2-(Trifluoromethyl)pyridin-4-yl)oxy)ethyl)-2-thia-7-azaspiro[3.5]nonane 2,2-dioxide] | 2.64 | 17 | 3.89

Compound | EC50 [1] [nM] | Ki [2] [nM] | EC50 (EpiSC-derived OPCs) [nM]
O=S1(=O)CC2(CCN(CCOc3ccc(-c4ccc(C(F)(F)F)nc4)cc3)CC2)C1 [Compound 238, 7-(2-(4-(6-(Trifluoromethyl)pyridin-3-yl)phenoxy)ethyl)-2-thia-7-azaspiro[3.5]nonane 2,2-dioxide] | 2.89 | 14.1 | 13.7
CC(C)n1nc(C(F)(F)F)cc1OCCN1CCC2(CC1)CS(=O)(=O)C2 [Compound 239] | 39.8 | 41.9 | 374
O=S1(=O)CC2(CCN(CCOc3cnc(C4CCCCC4)c(Cl)c3)CC2)C1 [Compound 240, 7-[2-[(5-Chloro-6-cyclohexyl-3-pyridyl)oxy]ethyl]-26-thia-7-azaspiro[3.5]nonane 2,2-dioxide] | 75.5 | 1.96 | 346
O=S1(=O)CC2(CCN(CCOc3cnc([C@H]4CC[C@H](C(F)(F)F)CC4)c(Cl)c3)CC2)C1 [Compound 246, 7-(2-((5-Chloro-6-((trans)-4-(trifluoromethyl)cyclohexyl)pyridin-3-yl)oxy)ethyl)-2-thia-7-azaspiro[3.5]nonane 2,2-dioxide] | 1.26 | 12.2 | 2.62
O=S1(=O)CC2(CCN(CCOc3cnc([C@H]4CC[C@H](C(F)(F)F)CC4)c(F)c3)CC2)C1 [Compound 249, 7-(2-((5-Fluoro-6-((trans)-4-(trifluoromethyl)cyclohexyl)pyridin-3-yl)oxy)ethyl)-2-thia-7-azaspiro[3.5]nonane 2,2-dioxide] | 25.6 | 31.6 | 74.1
CC(C)(CN1CCC2(C1)CS(=O)(=O)C2)Oc1cccc(F)c1 [Example 127, 6-(2-(3-Fluorophenoxy)-2-methylpropyl)-2-thia-6-azaspiro[3.4]octane-2,2-dioxide] | 13 | 21.3 | 15
CC(C)(Cc1cncc(C(F)(F)F)c1)CN1CCC2(C1)CS(=O)(=O)C2 [Example 149, 6-(2,2-Dimethyl-3-(5-(trifluoromethyl)pyridin-3-yl)propyl)-2-thia-6-azaspiro[3.4]octane-2,2-dioxide] | 1.6 | 24.6 | 6.3
CC(C)(Cc1ccc(C(F)(F)F)cn1)CN1CCC2(C1)CS(=O)(=O)C2 [Example 150, 6-(2,2-Dimethyl-3-(5-(trifluoromethyl)pyridin-2-yl)propyl)-2-thia-6-azaspiro[3.4]octane-2,2-dioxide] | 4.9 | 29.9 | 25
CC(C)(Cc1ccc(C(F)(F)F)nc1)CN1CCC2(CC1)CS(=O)(=O)C2 [Example 152, 7-(2,2-Dimethyl-3-(6-(trifluoromethyl)pyridin-3-yl)propyl)-2-thia-7-azaspiro[3.5]nonane-2,2-dioxide] | 3.3 | 16 | 11
CC(C)(Cc1ccc(C(F)(F)F)cc1)CN1CCC2(CC1)CS(=O)(=O)C2 [Example 153, 7-(2,2-Dimethyl-3-(4-(trifluoromethyl)phenyl)propyl)-2-thia-7-azaspiro[3.5]nonane-2,2-dioxide] | 0.87 | 7.23 | 1.6
O=S1(=O)CC2(CCN(CCOc3ccc(F)c(F)c3)CC2)C1 [Example 158, 7-(2-(3,4-Difluorophenoxy)ethyl)-2-thia-7-azaspiro[3.5]nonane 2,2-dioxide] | 2 | 10 | 2.9
O=S1(=O)CC2(CCN(CC3(Oc4ccc(C(F)(F)F)cc4)CCCC3)CC2)C1 [Example 202, 7-((1-(4-(Trifluoromethyl)phenoxy)cyclopentyl)methyl)-2-thia-7-azaspiro[3.5]nonane 2,2-dioxide] | 42 | 14.7 | 220
O=S1(=O)CC2(CCN(CCOc3ccc(F)cc3F)CC2)C1 [Example 204, 7-(2-(2,4-Difluorophenoxy)ethyl)-2-thia-7-azaspiro[3.5]nonane 2,2-dioxide] | 2.3 | 28.9 | 6.8
CC(C)(CN1CCC2(CC1)CS(=O)(=O)C2)Oc1ccc(C(F)(F)F)nc1 [Example 205, 7-(2-Methyl-2-((6-(trifluoromethyl)pyridin-3-yl)oxy)propyl)-2-thia-7-azaspiro[3.5]nonane 2,2-dioxide] | 5.6 | 19.4 | 24
O=S1(=O)CC2(CCN(CCOc3ccc(Cl)c(F)c3)CC2)C1 [Example 206, 7-(2-(4-Chloro-3-fluorophenoxy)ethyl)-2-thia-7-azaspiro[3.5]nonane 2,2-dioxide] | 1.5 | 13.2 | 3.2
